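Growth conditions: 96-well plates. Treatment: test compound, 48 hours, 5 concentrations. Analysis: linear interpolation between bracketing concentrations; unreached endpoints set to highest concentration. GI50 is the concentration that inhibits growth by half.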 Calls of active or inactive are those of the source. Rule as the data show it: active = GI50 up to about 1.1 µM and inactive = higher.
Columns and labels:
Assay in all cases: inhibition of tumour cell growth, NCI panel, 48 h
SF-268 = test system: SF-268
786-0 = test system: 786-0
NCI-H460 = test system: NCI-H460
COLO 205 = test system: COLO 205
OVCAR-8 = test system: OVCAR-8
EKVX = test system: EKVX
T47D = test system: T47D
HOP-62 = test system: HOP-62
KM12 = test system: KM12
PC-3 = test system: PC-3
OVCAR-3 = test system: OVCAR-3
LOX IMVI = test system: LOX IMVI
ACHN = test system: ACHN
OVCAR-4 = test system: OVCAR-4
A549 = test system: A549
UO-31 = test system: UO-31
HCT-116 = test system: HCT-116
HT-29 = test system: HT-29
MDA-MB-435 = test system: MDA-MB-435
MOLT-4 = test system: MOLT-4

Row | SMILES | GI50 (SF-268) | GI50 (786-0) | GI50 (NCI-H460) | GI50 (COLO 205) | GI50 (OVCAR-8) | GI50 (EKVX) | GI50 (T47D) | GI50 (HOP-62) | GI50 (KM12) | GI50 (PC-3) | GI50 (OVCAR-3) | GI50 (LOX IMVI) | GI50 (ACHN) | GI50 (OVCAR-4) | GI50 (A549) | GI50 (UO-31) | GI50 (HCT-116) | GI50 (HT-29) | GI50 (MDA-MB-435) | GI50 (MOLT-4)
1 | OC1(C2(c3ccc(Cl)cc3)CCCC2)c2ccccc2C2=NCCN21 (stereo not given) | 17.5 µM (inactive) | 14.3 µM (inactive) | 14.3 µM (inactive) | 10.3 µM (inactive) | 17.3 µM (inactive) | 16.9 µM (inactive) | 6.43 µM (inactive) | 17.4 µM (inactive) | 18.1 µM (inactive) | 11.9 µM (inactive) | 16.4 µM (inactive) | 14.4 µM (inactive) | 16.7 µM (inactive) | 12.9 µM (inactive) | 15.8 µM (inactive) | 11.7 µM (inactive) | 11.7 µM (inactive) | 10.8 µM (inactive) | 12.6 µM (inactive) | 13.3 µM (inactive)
2 | Cc1ccc(O)cc1.Cc1cccc(O)c1.Cc1ccccc1O [CRESOL] | > 100 µM (inactive) | > 100 µM (inactive) | > 100 µM (inactive) | > 100 µM (inactive) | > 100 µM (inactive) | > 100 µM (inactive) | > 100 µM (inactive) | > 100 µM (inactive) | > 100 µM (inactive) | 73.3 µM (inactive) | > 100 µM (inactive) | > 100 µM (inactive) | > 100 µM (inactive) | 89.3 µM (inactive) | > 100 µM (inactive) | > 100 µM (inactive) | > 100 µM (inactive) | > 100 µM (inactive) | > 100 µM (inactive) | 88.7 µM (inactive)
3 | O=C(O)[C@H](CCC[C@H]1C(=O)O[C@H](c2ccccc2)[C@H](c2ccccc2)N1C(=O)OCc1ccccc1)N[C@@H](c1ccccc1)[C@H](O)c1ccccc1 | 33.7 µM (inactive) | 32.5 µM (inactive) | 34.5 µM (inactive) | 30.8 µM (inactive) | 20.5 µM (inactive) | 38.6 µM (inactive) | 43.3 µM (inactive) | 19 µM (inactive) | 19.7 µM (inactive) | 37.1 µM (inactive) | 23.7 µM (inactive) | 22.9 µM (inactive) | > 100 µM (inactive) | 32.2 µM (inactive) | > 100 µM (inactive) | > 100 µM (inactive) | 20.8 µM (inactive) | 28.6 µM (inactive) | 20.7 µM (inactive) | 24.3 µM (inactive)
4 | Clc1nc2c(-c3cccs3)ncnc2n1Cc1ccccc1 | 29.6 µM (inactive) | 19.5 µM (inactive) | 37.9 µM (inactive) | 34.7 µM (inactive) | 49.9 µM (inactive) | 21.4 µM (inactive) | 10.1 µM (inactive) | 47.6 µM (inactive) | 15.9 µM (inactive) | 26.2 µM (inactive) | 23 µM (inactive) | > 86.9 µM (inactive) | 2 µM (inactive) | 44.9 µM (inactive) | 32.4 µM (inactive) | 0.435 µM (active) | 45.2 µM (inactive) | 39.8 µM (inactive) | 49.2 µM (inactive) | 37.5 µM (inactive)
